Laboratory results published in US8216610B2, “Oral paracetamol formulations” (Imaginot Pty Ltd., priority 2004, dated 2012).
Values after ≈ are worked out from the molar mass of the structure shown. Structures can show the parent of a compound that is named as a salt.

Columns and labels:
[1] = Solubility in water; format: physicochemical; settings: on a weight for weight basis; doses of the combination tablet
[2] = cited from earlier work
[3] = cited from earlier work; remark: listed apart in the source

Row | SMILES | volume needed for total dissolution of the dose [1] | dependence of solubility on pH [2] | solubility in water [2] | paracetamol concentration effective for antipyresis ([3]; Rumack et al 1978) | range of paracetamol plasma concentrations for effective analgesia ([3]; humans, Prescott 1974)
1 | CC(=O)Nc1ccc(O)cc1 [paracetamol, N-acetyl-p-aminophenol] | around 27 mL | independent of the pH | ~14 mg/mL (≈ 92.6 mM) | 10 to 20 µg/mL | 5 to 20 µg/mL
2 | COc1cccc(C2(O)CCCCC2CN(C)C)c1 (centres unmarked) [tramadol hydrochloride] | around 1 mL | reduced as the pH increases | around 30 mg/mL |  | 
